According to US20230233671A1, “RNA MOLECULES” (Pfizer Inc., priority 2021, published 2023):

Experiments:
[1] = tested on: VZV gE; experiment: IFN-γ ELISpot of gE peptide-stimulated splenocytes from LAV-experienced C57BL/6 mice; assay type: in vivo; conditions: Day 48 (13 days post dose 1), 1 μg IM Day 35
Experimental: VZV RNA-LNP vaccines were tested for their ability to induce IgG and T cell responses in C57BL/6 mice. 15 mice per group were immunized in accordance with the schedule and specification in Table 11. Briefly, 10 or 15 mice per group were primed subcutaneously (SQ) on Day 0 with a live-attenuated varicella (LAV) vaccine (VARIVAX®, Merck) using a full human dose per mouse (1350 pfu), immunized intramuscularly (IM) on Day 35 day and boosted on Day 63. The “infection” with a LAV vaccine mimics exposure to VZV that humans receive when infected with VZV as children and develop chickenpox. […]
Vaccine-induced T cell response was measured following ex vivo stimulation of splenocytes with gE peptide pool (2 μg/mL of each peptide) by ELISpot and Intracellular Cytokine Staining (ICS) assay (described herein). […] T cell IFN-γ response was measured using Mabtech Mouse IFN-γ ELISpot PLUS kit (ALP) and expressed as spot forming cells (SFC) per million cells. The ICS assay measured IFN-γ-expressing cells within CD4^+ and CD8^+ T cells expressed as percentage of IFN-γ^+ cells within CD4^+ and CD8^+ T cells. […]

[2] = tested on: Vero cells; experiment: VZV gE expression and subcellular localization in Vero cells transfected with VZV RNA constructs (imaging); assay type: cell-based, African green monkeys; conditions: Table 8; VZV gE RNA, see Example 2
Experimental: Expression of VZV RNA constructs were tested in transfected Vero cells, a kidney epithelial cell culture line derived from African green monkeys. Seeded Vero cells were transfected for 24 hours at 37° C., 5% CO2 with 10 ng, 25 ng, or 50 ng of RNA constructs (Table 5) using MESSENGERMAX™ in accordance with the manufacturer's instructions. Cells were washed three times with PBS+Ca/Mg, and fixed in 4% paraformaldehyde (PFA) for 20 minutes at 25° C. Cells were washed twice with 3% bovine serum albumin (BSA) in PBS+Ca/Mg. Primary and secondary staining antibodies were diluted in 0.1% saponin in goat serum. Cells were stained with a 1:1000 dilution of primary antibody for 1 hour at 37° C., washed three times with PBS+Ca/Mg, and incubated with secondary antibody (1:500) and CELLMASK™ (1:140,000) for 45 minutes at 37° C. Cells were then stained with Dapi (1:15,000-1:20,000) for 15 minutes at 25° C., and washed three times with PBS+Ca/Mg. Cells were analyzed for VZV gE expression and subcellular localization using an Opera PHENIX® Plus High-Content Screening System at 10× or 63× magnification.

[3] = tested on: VZV gE; experiment: Frequency of gE-specific IgG+ B cells in splenocytes of LAV-experienced C57BL/6 mice (flow cytometry); assay type: in vivo; conditions: percentage of IgG-expressing B cells
Experimental: VZV RNA-LNP vaccines were tested for their ability to induce IgG and T cell responses in C57BL/6 mice. 15 mice per group were immunized in accordance with the schedule and specification in Table 11. Briefly, 10 or 15 mice per group were primed subcutaneously (SQ) on Day 0 with a live-attenuated varicella (LAV) vaccine (VARIVAX®, Merck) using a full human dose per mouse (1350 pfu), immunized intramuscularly (IM) on Day 35 day and boosted on Day 63. The “infection” with a LAV vaccine mimics exposure to VZV that humans receive when infected with VZV as children and develop chickenpox.
Mice immunized with SHINGRIX® received 1, 2.5, or 5 μg, corresponding to 1/50, 1/20, and 1/10 of the human clinical dose, respectively; mice immunized with gE_WT CO2 received 0.5 or 1 μg VZV RNA-LNP; mice immunized with ms5 CO1 received 0.5 or 1 ug VZV RNA-LNP; mice immunized with ms6 CO2 received 0.5 or 1 ug VZV RNA-LNP; and mice immunized with lyophilized gE_WT CO2 received 0.5 or 1 ug VZV RNA-LNP. Saline was administered on Day 35 and 63 to a negative control group. Sera was collected from mice on Day 35, 63 and 76 for characterization of VZV gE-binding IgG levels (LUMINEX® analyses). Spleens were harvested on Day 48 (13 days post dose 1 for selected groups) and Day 76 for cellular analysis (T cell and B cell responses).
Vaccine-induced B cell response was evaluated by measuring the frequencies of VZV gE-specific B cells in the spleen. Wild type gE protein ectodomain with streptag was coupled to streptavidin (SA)-fluorochromes PE and APC, both from BioLegend in the ratio of 2:1 in separate tubes for 1 hour at room temperature (RT) at 20× of desired staining concentration (10 μg/mL for each protein). Each of the SA-fluorochrome-coupled spike proteins were pooled and diluted to 1× using flow cytometry (FC) buffer (2% FBS/PBS) to generate B-cell probes to identify gE-specific B cells. Single cell suspensions of splenocytes (5×10^6 cells per well) were first washed in PBS and stained with eFluor 506 Fixable Viability dye for 10 minutes at RT to identify live from dead cells. Following washes in FC buffer, cells were incubated with 50 μL/well of 1×B-cell probe for 30 to 45 minutes and then washed to remove unbound probes. Cells were surface stained with a cocktail of flow cytometry antibodies (CD19, IgD, IgM, IgD, All from BioLegend) to identify B cell surface phenotypes. Following washing, cells were fixed using BD Fixation buffer and suspended in FC buffer. Cells were acquired on LSR Fortessa and data analyzed by FlowJo (10.7.1). The results of gE-specific B cells were expressed as the percentage of IgG-expressing B cells.

[4] = Day 48 (13 days post dose 1), 1 μg IM Day 35
[5] = Day 76 (13 days post dose 2/boost), 1 μg IM Days 35 and 63

Row | Substance | gE-specific IFN-γ+ cells (ELISpot) [1] [SFC per million cells] | VZV RNA (Vero cells) MFI [2] | gE-specific IgG+ B cells [3, 4] [%] | gE-specific IgG+ B cells [3, 5] [%]
1 | ms5 CO1: modRNA construct, ORF SEQ ID NO: 153, VZV gE with deletion of aa 582-623 | 1068 | 1368 | 4.14 | 2.19
2 | ms6 CO2: modRNA construct, ORF SEQ ID NO: 157, VZV gE with deletion of aa 539-623, secreted | 150 | 458 | 1.85 | 1.38
